Results as given in PubChem BioAssay AID330 (DTP/NCI, 2004).
“And” between values parts separate entries of the source, which are not always exact repeats. Equal entries are not always repeated. Inconclusive results and toxic doses are left out.

Test system: P388 leukemia ip, CD2F1 mice, survival T/C
Assay: NCI In Vivo Anticancer Drug Screen. Data for tumor model P388 Leukemia (intraperitoneal) in CD2F1 (CDF1) mice
Details: endpoint: median survival time, higher = longer survival
Method in brief: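 Mice carrying the transplanted tumor received test compound or vehicle. Survival was recorded in each group, and the value is the treated-group measurement divided by that of the vehicle-treated control group.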

[1] = dose: 50.0 mg/kg/injection, schedule: Q01DX005 (ip), vehicle: saline with Tween-80
[2] = dose: 50.0 mg/kg/injection, schedule: Q01DX009 (ip), vehicle: saline with Tween-80
[3] = dose: 100.0 mg/kg/injection, schedule: Q01DX009 (ip), vehicle: saline with Tween-80
[4] = dose: 200.0 mg/kg/injection, schedule: Q01DX009 (ip), vehicle: saline with Tween-80
[5] = dose: 50.0 mg/kg/injection, schedule: Q01DX009 (ip), vehicle: saline
[6] = dose: 60.0 mg/kg/injection, schedule: Q01DX005 (ip), vehicle: saline with Tween-80
[7] = dose: 120.0 mg/kg/injection, schedule: Q01DX005 (ip), vehicle: saline with Tween-80
[8] = dose: 240.0 mg/kg/injection, schedule: Q01DX005 (ip), vehicle: saline with Tween-80

O=C1C2=C(CCC2)C(=O)N1c1ccc(N2C(=O)C3=C(CCC3)C2=O)cc1
T/C (dose: 1.56 mg/kg/injection, schedule: Q01DX009 (ip), vehicle: distilled water + Tween-80): 101 % of control | T/C (dose: 3.13 mg/kg/injection, schedule: Q01DX009 (ip), vehicle: distilled water + Tween-80): 102 % of control | T/C (dose: 6.25 mg/kg/injection, schedule: Q01DX009 (ip), vehicle: distilled water + Tween-80): 100 % of control | T/C (dose: 12.5 mg/kg/injection, schedule: Q01DX009 (ip), vehicle: distilled water + Tween-80): 99 % of control | T/C (dose: 25.0 mg/kg/injection, schedule: Q01DX009 (ip), vehicle: distilled water + Tween-80): 107 % of control | T/C (dose: 50.0 mg/kg/injection, schedule: Q01DX009 (ip), vehicle: distilled water + Tween-80): 103 % of control | T/C (dose: 100.0 mg/kg/injection, schedule: Q01DX009 (ip), vehicle: distilled water + Tween-80): 119 % of control

c1c(NC2=NCCO2)cc2c3c1CCCN3CCC2
T/C (dose: 12.5 mg/kg/injection, schedule: Q04DX003 (ip), vehicle: saline with Tween-80): 90 % of control | T/C (dose: 25.0 mg/kg/injection, schedule: Q04DX003 (ip), vehicle: saline with Tween-80): 100 % of control | T/C (dose: 50.0 mg/kg/injection, schedule: Q04DX003 (ip), vehicle: saline with Tween-80): 109 % of control

CC(=O)N1C=Cc2ccccc2C1C1NC=Cc2ccccc21 (stereo unspecified)
T/C [1]: 96 % of control | T/C (dose: 100.0 mg/kg/injection, schedule: Q01DX005 (ip), vehicle: saline with Tween-80): 94 % of control | T/C (dose: 200.0 mg/kg/injection, schedule: Q01DX005 (ip), vehicle: saline with Tween-80): 88 % of control

COC(=O)CCC(=O)C(C#N)c1ccc(CC#N)cc1 (stereo unspecified)
T/C (dose: 12.5 mg/kg/injection, schedule: Q01DX005 (ip), vehicle: saline with Tween-80): 96 % of control | T/C (dose: 25.0 mg/kg/injection, schedule: Q01DX005 (ip), vehicle: saline with Tween-80): 98 % of control | T/C [1]: 102 % of control and 95 % of control

Clc1ccc2sc(-c3ccccc3)nc2c1
T/C [2]: 106 % of control | T/C [3]: 103 % of control | T/C [4]: 100 % of control | T/C (dose: 400.0 mg/kg/injection, schedule: Q01DX009 (ip), vehicle: saline with Tween-80): 100 % of control

Nc1ccc(S(=O)(=O)n2c(=O)oc3ccc(Br)cc32)cc1
T/C (dose: 100.0 mg/kg/injection, schedule: Q04DX002 (ip), vehicle: Klucel (hydroxypropylcellulose) (HPC)): 93 % of control | T/C (dose: 200.0 mg/kg/injection, schedule: Q04DX002 (ip), vehicle: Klucel (hydroxypropylcellulose) (HPC)): 90 % of control | T/C (dose: 400.0 mg/kg/injection, schedule: Q04DX002 (ip), vehicle: Klucel (hydroxypropylcellulose) (HPC)): 93 % of control

[Cl][Eu]([Cl])[Cl]
T/C [5]: 89 % of control

Oc1ccccc1N=Nc1ccccc1O.[O]=[V]
T/C (dose: 3.13 mg/kg/injection, schedule: Q01DX009 (ip), vehicle: Klucel (hydroxypropylcellulose) (HPC)): 99 % of control | T/C (dose: 6.25 mg/kg/injection, schedule: Q01DX009 (ip), vehicle: Klucel (hydroxypropylcellulose) (HPC)): 107 % of control and 112 % of control | T/C (dose: 12.5 mg/kg/injection, schedule: Q01DX009 (ip), vehicle: Klucel (hydroxypropylcellulose) (HPC)): 100 % of control and 106 % of control | T/C (dose: 25.0 mg/kg/injection, schedule: Q01DX009 (ip), vehicle: Klucel (hydroxypropylcellulose) (HPC)): 90 % of control

CC(=O)OCC1CC2COCC2CC1COC(C)=O (stereo unspecified)
T/C [6]: 100 % of control | T/C [7]: 108 % of control | T/C [8]: 102 % of control

CCN(CC)CCCC(C)Nc1cc(OC)c2nc(C)cc(OC)c2c1OC (stereo unspecified)
T/C (dose: 1.56 mg/kg/injection, schedule: Q01DX009 (ip), vehicle: saline): 100 % of control | T/C (dose: 3.12 mg/kg/injection, schedule: Q01DX009 (ip), vehicle: saline): 89 % of control | T/C (dose: 6.25 mg/kg/injection, schedule: Q01DX009 (ip), vehicle: saline): 91 % of control and 97 % of control

O=C1Nc2ccccc2C1NC(=S)Nc1ccccc1 (stereo unspecified)
T/C [6]: 96 % of control | T/C [7]: 94 % of control

CSc1c2ccncc2c(C)c2c1[nH]c1ccccc12
T/C (dose: 6.25 mg/kg/injection, schedule: Q04DX002 (ip), vehicle: distilled water + Tween-80): 95 % of control | T/C (dose: 12.5 mg/kg/injection, schedule: Q04DX002 (ip), vehicle: distilled water + Tween-80): 94 % of control | T/C (dose: 25.0 mg/kg/injection, schedule: Q04DX002 (ip), vehicle: distilled water + Tween-80): 88 % of control | T/C (dose: 50.0 mg/kg/injection, schedule: Q04DX002 (ip), vehicle: distilled water + Tween-80): 89 % of control | T/C (dose: 100.0 mg/kg/injection, schedule: Q04DX002 (ip), vehicle: distilled water + Tween-80): 95 % of control | T/C (dose: 200.0 mg/kg/injection, schedule: Q04DX002 (ip), vehicle: distilled water + Tween-80): 98 % of control

OCCN1CN(c2ccccc2)C(=S)N(c2ccccc2)C1
T/C [2]: 97 % of control | T/C [3]: 100 % of control | T/C [4]: 93 % of control

Nc1cc([N+](=O)[O-])ccc1-c1ccc(NC(=O)CCNC=O)cc1
T/C (dose: 12.5 mg/kg/injection, schedule: Q01DX009 (ip), vehicle: other): 93 % of control | T/C (dose: 25.0 mg/kg/injection, schedule: Q01DX009 (ip), vehicle: other): 97 % of control | T/C (dose: 50.0 mg/kg/injection, schedule: Q01DX009 (ip), vehicle: other): 90 % of control | T/C (dose: 100.0 mg/kg/injection, schedule: Q01DX009 (ip), vehicle: other): 93 % of control | T/C (dose: 200.0 mg/kg/injection, schedule: Q01DX009 (ip), vehicle: other): 91 % of control

CCc1cccc(CC)c1NC(=O)C(Sc1nc(-c2cccs2)cc(C(F)(F)F)c1C#N)c1ccccc1 (stereo unspecified)
T/C (dose: 50.0 mg/kg/injection, schedule: Q01DX005 (ip), vehicle: Klucel (hydroxypropylcellulose) (HPC)): 94 % of control | T/C (dose: 100.0 mg/kg/injection, schedule: Q01DX005 (ip), vehicle: Klucel (hydroxypropylcellulose) (HPC)): 94 % of control | T/C (dose: 200.0 mg/kg/injection, schedule: Q01DX005 (ip), vehicle: Klucel (hydroxypropylcellulose) (HPC)): 89 % of control

COc1cccc2c1NC(OC)C1CC(/C=C/C(=O)N(C)C)=CN1C2=O (stereo unspecified)
T/C (dose: 320.0 micrograms/kg/injection, schedule: Q01DX005 (ip), vehicle: saline with Tween-80): 155 % of control

C[Si](CCCNCCN)(O[Si](C)(CCCNCCN)c1ccccc1)c1ccccc1 (stereo unspecified)
T/C (dose: 15.0 mg/kg/injection, schedule: Q01DX005 (ip), vehicle: saline with Tween-80): 109 % of control | T/C (dose: 30.0 mg/kg/injection, schedule: Q01DX005 (ip), vehicle: saline with Tween-80): 105 % of control | T/C [6]: 100 % of control

C/C(=N\NC(=O)CCl)C(C)(C)C
T/C (dose: 25.0 mg/kg/injection, schedule: Q01DX009 (ip), vehicle: saline): 111 % of control | T/C [5]: 109 % of control | T/C (dose: 100.0 mg/kg/injection, schedule: Q01DX009 (ip), vehicle: saline): 103 % of control

COc1ccc(N=Nc2ccc(N(CCCl)CCCl)cc2)cc1
T/C (dose: 25.0 mg/kg/injection, schedule: Q01DX001 (ip), vehicle: Klucel (hydroxypropylcellulose) (HPC)): 106 % of control | T/C (dose: 50.0 mg/kg/injection, schedule: Q01DX001 (ip), vehicle: Klucel (hydroxypropylcellulose) (HPC)): 108 % of control | T/C (dose: 100.0 mg/kg/injection, schedule: Q01DX001 (ip), vehicle: Klucel (hydroxypropylcellulose) (HPC)): 110 % of control

COc1cccc(/C=N/NC(=O)c2ccccc2N2CCCC2)c1O
T/C (dose: 12.5 mg/kg/injection, schedule: Q01DX009 (ip), vehicle: olive oil, sesame oil, peanut oil): 93 % of control | T/C (dose: 25.0 mg/kg/injection, schedule: Q01DX009 (ip), vehicle: olive oil, sesame oil, peanut oil): 97 % of control | T/C (dose: 50.0 mg/kg/injection, schedule: Q01DX009 (ip), vehicle: olive oil, sesame oil, peanut oil): 97 % of control | T/C (dose: 100.0 mg/kg/injection, schedule: Q01DX009 (ip), vehicle: olive oil, sesame oil, peanut oil): 96 % of control | T/C (dose: 200.0 mg/kg/injection, schedule: Q01DX009 (ip), vehicle: olive oil, sesame oil, peanut oil): 94 % of control

N#CC1(C#N)CC1c1ccccc1 (stereo unspecified)
T/C [6]: 105 % of control | T/C [7]: 96 % of control | T/C [8]: 96 % of control

CSC(SC)(SC)SC
T/C [2]: 94 % of control | T/C [3]: 109 % of control

COc1cccc(C2NC(=S)NC(=O)C2C#N)c1 (stereo unspecified)
T/C (dose: 50.0 mg/kg/injection, schedule: Q01DX009 (ip), vehicle: Klucel (hydroxypropylcellulose) (HPC)): 98 % of control | T/C (dose: 100.0 mg/kg/injection, schedule: Q01DX009 (ip), vehicle: Klucel (hydroxypropylcellulose) (HPC)): 98 % of control | T/C (dose: 200.0 mg/kg/injection, schedule: Q01DX009 (ip), vehicle: Klucel (hydroxypropylcellulose) (HPC)): 94 % of control
